According to patent publication US20150374676A1, “HELICASE-PRIMASE INHIBITORS FOR USE IN A METHOD OF TREATING ALZHEIMER'S DISEASE” (AICURIS GMBH & CO. KG, priority 2013, published 2015):

Tests used:
[1] = cited from earlier work
HSV-1 [2] = conditions: HSV-1-infected cell cultures; cited from earlier work
[3] = in vivo; cited from earlier work
HSV-1 [4] = test: HSV-1 infected Vero cells, immunocytochemistry for HSV-1 proteins, Aβ and P-tau; type: cell-based, herpes simplex virus type 1; conditions: MOI 0.01 pfu/cell, 24 h; for staining for Aβ / staining for P-tau: 0.025-25 μM
Procedure: (§1) Vero cells were infected with HSV-1 at 0.01 plaque forming units (pfu) per cell [pfu/cell] for 24 hours and treated with varying concentrations of ACV and/or the exemplary compound according to Formula (I). Subsequently, cells were fixed and examined for HSV-1 proteins (A), Aβ(B) and P-tau (C) by immunocytochemistry. 1=vehicle; 2-5=increasing concentrations of the exemplary compound according to Formula (I) [0.025, 0.25, 2.5, 25 μM]; 6-9=increasing concentrations of acyclovir [0.025, 0.25, 2.5, 25 μM].
(§2) The inventors have compared the efficacy of the exemplary compound according to Formula (I) with that of ACV in respect to Aβ and P-tau accumulation in HSV-1 infected cells. African green monkey kidney (Vero) cells or human neuroblastoma (SH-SY5Y) cells were infected with HSV-1 at a multiplicity of infection (MOI) of 0.01 plaque forming units (pfu) per cell [pfu/cell] for 24 hours and were treated with the exemplary compound according to Formula (I), or ACV. The antiviral agents were added at the time of infection and remained throughout the infection. Infection led to typical cytopathic effects (clustering of infected cells positive for HSV-1 protein staining (FIGS. 1A and 2 A, panel 1)).

HSV-1 [5] = test: HSV-1 infected SH-SY5Y cells, immunocytochemistry for HSV-1 proteins, Aβ and P-tau; type: cell-based, herpes simplex virus type 1; conditions: MOI 0.01 pfu/cell, 24 h; for staining for Aβ / staining for P-tau: 0.025-25 μM
Procedure: as §1, with “SH-SY5Y” for “Vero”, “Aβ (B)” for “Aβ(B)”
as §2

[6] = safety and tolerability in single and multiple dose phase I trials; type: in vivo, human; conditions: healthy male volunteers, single dose and daily doses for 21 days
Procedure: The results were compared with the effective concentration of the free base of N-[5-(aminosulfonyl)-4-methyl-1,3-thiazol-2-yl]-N-methyl-2-[4-(2-pyridinyl)phenyl]acetamide in cell culture and correlated to exposures reached in healthy male volunteers in single and multiple dose phase I trials (see FIGS. 4-7).
(§3) In healthy male volunteers these plasma concentrations were covered by a single dose of 40 mg as free base equivalent to the crystalline mono mesylate monohydrate salt of N-[5-(aminosulfonyl)-4-methyl-1,3-thiazol-2-yl]-N-methyl-2-[4-(2-pyridinyl)phenyl]-acetamide (see FIG. 4) and at steady state by daily doses of 25 mg as free base equivalent (see FIG. 5) for 21 days.

HSV = test: murine HSV skin infection model; type: in vivo; conditions: oral doses of 5 mg/kg or higher once daily for four days; data not shown
Procedure: To assess the pharmacokinetic/pharmacodynamic profile the effective dose of the specific free base of N-[5-(aminosulfonyl)-4-methyl-1,3-thiazol-2-yl]-N-methyl-2-[4-(2-pyridinyl)phenyl]-acetamide was validated in a murine HSV skin infection model and associated plasma concentrations were determined (data not shown).
as §3

[7] = absolute bioavailability after oral administration; conditions: in vivo; oral administration of the mono mesylate monohydrate salt in a composition of the invention; human; read-out: absolute bioavailability of the free base
Excerpt: In yet another aspect of the invention said absolute bioavailability of 70%±30% of the resultant free base form of N-[5-(aminosulfonyl)-4-methyl-1,3-thiazol-2-yl]-N-methyl-2-[4-(2-pyridinyl)-phenyl]acetamide is achieved in a human.
In the context of the present invention the term “bioavailability” denotes a subcategory of absorption. Bioavailability denotes the fraction of an administered oral dose of the crystalline N-[5-(aminosulfonyl)-4-methyl-1,3-thiazol-2-yl]-N-methyl-2-[4-(2-pyridinyl)-phenyl]acetamide mono methanesulfonic acid monohydrate of the invention that reaches the systemic circulation of a subject as the resultant free base form of N-[5-(aminosulfonyl)-4-methyl-1,3-thiazol-2-yl]-N-methyl-2-[4-(2-pyridinyl)-phenyl]acetamide. By definition, when a medication is administered intravenously, its bioavailability is 100%. However, when a medication is administered via other routes (such as orally), its bioavailability generally decreases (due to incomplete absorption and first-pass metabolism) or may vary from individual to individual. Bioavailability is one of the essential tools in pharmacokinetics, as bioavailability must be considered when calculating dosages for non-intravenous routes of administration.

[8] = higher concentrations 0.25, 2.5, 25 μM

| SMILES | water solubility [1] | HSV-1 induced accumulation of Aβ and P-tau (HSV-1 [2]) | oral bioavailability [3] | cluster size of HSV-1 infected cells (HSV-1 protein staining) (HSV-1 [4]; 0.025 μM) | staining for Aβ (HSV-1 [4]) | staining for P-tau (HSV-1 [4]) | cluster size of HSV-1 infected cells (HSV-1 protein staining) (HSV-1 [4]; [8]) | cluster size of HSV-1 infected cells (HSV-1 protein staining) (HSV-1 [5]; 0.025 μM) | staining for Aβ (HSV-1 [5]) | staining for P-tau (HSV-1 [5]) | cluster size of HSV-1 infected cells (HSV-1 protein staining) (HSV-1 [5]; [8]) | antibody staining to HSV-1 proteins, Aβ and P-tau (HSV-1 [4]) | safety and tolerability [6] | suppression of murine HSV skin infection (HSV) | bioavailability [7] [%] | antibody staining to HSV-1 proteins, Aβ and P-tau (HSV-1 [5]) |
| --- | --- | --- | --- | --- | --- | --- | --- | --- | --- | --- | --- | --- | --- | --- | --- | --- |
| Nc1nc2c(ncn2COCCO)c(=O)[nH]1 [ACV, acyclovir, reference compound] | poorly water-soluble | reduced the virus-induced accumulation of Aβ and P-tau | 15-30% | little effect on cluster sizes | still visible at higher concentrations of ACV | still visible at higher concentrations of ACV | reduced their sizes but less so than did the treatment with equimolar exemplary compound according to Formula (I) | little effect on cluster sizes | still visible at higher concentrations of ACV | still visible at higher concentrations of ACV | reduced their sizes but less so than did the treatment with equimolar exemplary compound according to Formula (I) |  |  |  |  |  |
| Cc1nc(N(C)C(=O)Cc2ccc(-c3ccccn3)cc2)sc1S(N)(=O)=O [N-[5-(aminosulfonyl)-4-methyl-1,3-thiazol-2-yl]-N-methyl-2-[4-(2-pyridinyl)phenyl]acetamid] |  |  |  | slightly smaller compared to control | reduced | reduced | clusters disappear and only occasionally infected cells could be detected | slightly smaller compared to control | reduced | reduced | clusters disappear and only occasionally infected cells could be detected | total or almost total removal of antibody staining | safe and well tolerated up to the highest dose tested | completely suppressed | 70 | total or almost total removal of antibody staining |
